Reference: the supplement of paper PMC10307832

Legend:
Assay in all cases: relative viability (nuclei count vs DMSO), 5 days (fraction); higher = more cells survive
LXF-289 = test system: LXF-289
Outline: (§1)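 Relative viability was taken as the ratio of nuclei in treated wells to nuclei in vehicle wells. Lung cancer cell lines in 1536-well plates received compounds by pin tool one day after seeding, either one drug alone or a fixed anchor-drug dose plus five library-drug doses (not always all listed) in √10 steps. Nuclei were counted on 4× images after 5 days of treatment, and values are medians of duplicate plates.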

EMC-BAC-2 = test system: EMC-BAC-2
Outline: as §1

NCI-H2126 = test system: NCI-H2126
Outline: as §1

NCI-H1650 = test system: NCI-H1650
Outline: as §1

NCI-H2023 = test system: NCI-H2023
Outline: as §1

NCI-H1993 = test system: NCI-H1993
Outline: as §1

H3255 = test system: H3255
Outline: as §1

HOP-62 = test system: HOP-62
Outline: as §1

NCI-H661 = test system: NCI-H661
Outline: as §1

NCI-H322M = test system: NCI-H322M
Outline: as §1

SW 1573 = test system: SW 1573
Outline: as §1

NCI-H727 = test system: NCI-H727
Outline: as §1

NCI-H2347 = test system: NCI-H2347
Outline: as §1

SK-LU-1 = test system: SK-LU-1
Outline: as §1

NCI-H2009 = test system: NCI-H2009
Outline: as §1

NCI-H358 = test system: NCI-H358
Outline: as §1

BEN = test system: BEN
Outline: as §1

NCI-H2342 = test system: NCI-H2342
Outline: as §1

PC-14 = test system: PC-14
Outline: as §1

NCI-H1915 = test system: NCI-H1915
Outline: as §1

NCI-H2085 = test system: NCI-H2085
Outline: as §1

NCI-H647 = test system: NCI-H647
Outline: as §1

LCLC-97TM1 = test system: LCLC-97TM1
Outline: as §1

Question: How did the relative viability (LXF-289; first compound 0.01 µM) turn out when `CC(C)Oc1cc(Nc2nc(N[C@@H](C)c3ccc(F)cn3)ncc2Cl)n[nH]1` [AZ23] + CC(=O)c1c(C)c2cnc(Nc3ccc(N4CCNCC4)cn3)nc2n(C2CCCC2)c1=O [Palbociclib] (partner 0.5 µM) was run?
Answer: The relative viability was 0.739.

Question: What about the relative viability (LXF-289; first compound 0.03162 µM) of the same compound?
Answer: Its relative viability is 0.631.

Question: What about the relative viability (LXF-289; first compound 0.3162 µM) of the same compound?
Answer: Its relative viability is 0.534.

Question: And the relative viability (EMC-BAC-2; first compound 0.01 µM)?
Answer: The relative viability was 0.527.

Question: What about the relative viability (EMC-BAC-2; first compound 0.03162 µM) of the same compound?
Answer: Its relative viability is 0.523.

Question: What about the relative viability (EMC-BAC-2; first compound 0.3162 µM) of the same compound?
Answer: The relative viability was 0.52.

Question: And the relative viability (NCI-H2126; first compound 0.01 µM)?
Answer: The relative viability was 0.332.

Question: And the relative viability (NCI-H2126; first compound 0.03162 µM)?
Answer: The relative viability was 0.335.

Question: And the relative viability (NCI-H2126; first compound 0.3162 µM)?
Answer: Its relative viability is 0.342.

Question: And the relative viability (NCI-H1650; first compound 0.01 µM)?
Answer: The relative viability was 0.303.

Question: And the relative viability (NCI-H1650; first compound 0.03162 µM)?
Answer: Its relative viability is 0.439.

Question: And the relative viability (NCI-H1650; first compound 0.3162 µM)?
Answer: The relative viability was 0.378.

Question: And the relative viability (NCI-H2023; first compound 0.03162 µM)?
Answer: The relative viability was 0.369.

Question: And the relative viability (NCI-H2023; first compound 0.3162 µM)?
Answer: The relative viability was 0.264.

Question: What about the relative viability (NCI-H1993; first compound 0.01 µM) of the same compound?
Answer: The relative viability was 0.559.

Question: And the relative viability (NCI-H1993; first compound 0.03162 µM)?
Answer: The relative viability was 0.695.

Question: What about the relative viability (NCI-H1993; first compound 0.3162 µM) of the same compound?
Answer: Its relative viability is 0.477.

Question: What about the relative viability (H3255; first compound 0.01 µM) of the same compound?
Answer: The relative viability was 0.31.

Question: And the relative viability (H3255; first compound 0.03162 µM)?
Answer: Its relative viability is 0.318.

Question: What about the relative viability (H3255; first compound 0.3162 µM) of the same compound?
Answer: Its relative viability is 0.295.

Question: What about the relative viability (HOP-62; first compound 0.01 µM) of the same compound?
Answer: The relative viability was 0.507.

Question: And the relative viability (HOP-62; first compound 0.03162 µM)?
Answer: Its relative viability is 0.467.

Question: And the relative viability (HOP-62; first compound 0.3162 µM)?
Answer: The relative viability was 0.437.

Question: And the relative viability (NCI-H661; first compound 0.01 µM)?
Answer: The relative viability was 0.367.

Question: And the relative viability (NCI-H661; first compound 0.03162 µM)?
Answer: The relative viability was 0.391.

Question: What about the relative viability (NCI-H661; first compound 0.3162 µM) of the same compound?
Answer: Its relative viability is 0.349.

Question: What about the relative viability (NCI-H322M; first compound 0.01 µM) of the same compound?
Answer: Its relative viability is 0.446.

Question: And the relative viability (NCI-H322M; first compound 0.03162 µM)?
Answer: Its relative viability is 0.472.

Question: And the relative viability (NCI-H322M; first compound 0.3162 µM)?
Answer: The relative viability was 0.485.

Question: What about the relative viability (SW 1573; first compound 0.01 µM) of the same compound?
Answer: The relative viability was 0.58.

Question: And the relative viability (SW 1573; first compound 0.03162 µM)?
Answer: Its relative viability is 0.467.

Question: What about the relative viability (SW 1573; first compound 0.3162 µM) of the same compound?
Answer: Its relative viability is 0.394.

Question: And the relative viability (NCI-H727; first compound 0.01 µM)?
Answer: Its relative viability is 0.59.

Question: What about the relative viability (NCI-H727; first compound 0.03162 µM) of the same compound?
Answer: The relative viability was 0.66.

Question: What about the relative viability (NCI-H727; first compound 0.3162 µM) of the same compound?
Answer: The relative viability was 0.619.

Question: What about the relative viability (NCI-H2347; first compound 0.01 µM) of the same compound?
Answer: Its relative viability is 0.441.

Question: And the relative viability (NCI-H2347; first compound 0.03162 µM)?
Answer: Its relative viability is 0.418.

Question: What about the relative viability (NCI-H2347; first compound 0.3162 µM) of the same compound?
Answer: Its relative viability is 0.398.

Question: What about the relative viability (SK-LU-1; first compound 0.03162 µM) of the same compound?
Answer: Its relative viability is 0.416.

Question: And the relative viability (SK-LU-1; first compound 0.3162 µM)?
Answer: Its relative viability is 0.414.

Question: And the relative viability (NCI-H2009; first compound 0.01 µM)?
Answer: Its relative viability is 0.2.

Question: What about the relative viability (NCI-H2009; first compound 0.03162 µM) of the same compound?
Answer: Its relative viability is 0.185.

Question: And the relative viability (NCI-H2009; first compound 0.3162 µM)?
Answer: Its relative viability is 0.196.

Question: And the relative viability (NCI-H358; first compound 0.01 µM)?
Answer: Its relative viability is 0.129.

Question: And the relative viability (NCI-H358; first compound 0.03162 µM)?
Answer: Its relative viability is 0.141.

Question: What about the relative viability (NCI-H358; first compound 0.3162 µM) of the same compound?
Answer: Its relative viability is 0.13.

Question: And the relative viability (BEN; first compound 0.01 µM)?
Answer: Its relative viability is 0.475.

Question: What about the relative viability (BEN; first compound 0.03162 µM) of the same compound?
Answer: The relative viability was 0.458.

Question: What about the relative viability (BEN; first compound 0.3162 µM) of the same compound?
Answer: Its relative viability is 0.455.

Question: What about the relative viability (NCI-H2342; first compound 0.01 µM) of the same compound?
Answer: The relative viability was 0.516.

Question: What about the relative viability (NCI-H2342; first compound 0.03162 µM) of the same compound?
Answer: Its relative viability is 0.511.

Question: And the relative viability (NCI-H2342; first compound 0.3162 µM)?
Answer: The relative viability was 0.509.

Question: And the relative viability (PC-14; first compound 0.01 µM)?
Answer: The relative viability was 0.492.

Question: And the relative viability (PC-14; first compound 0.03162 µM)?
Answer: The relative viability was 0.567.

Question: And the relative viability (PC-14; first compound 0.3162 µM)?
Answer: The relative viability was 0.577.

Question: And the relative viability (NCI-H1915; first compound 0.01 µM)?
Answer: Its relative viability is 0.571.

Question: What about the relative viability (NCI-H1915; first compound 0.03162 µM) of the same compound?
Answer: Its relative viability is 0.492.

Question: What about the relative viability (NCI-H1915; first compound 0.3162 µM) of the same compound?
Answer: The relative viability was 0.5.

Question: And the relative viability (NCI-H2085; first compound 0.01 µM)?
Answer: Its relative viability is 0.435.

Question: And the relative viability (NCI-H2085; first compound 0.03162 µM)?
Answer: The relative viability was 0.469.

Question: And the relative viability (NCI-H2085; first compound 0.3162 µM)?
Answer: The relative viability was 0.435.

Question: What about the relative viability (NCI-H647; first compound 0.01 µM) of the same compound?
Answer: Its relative viability is 0.408.

Question: What about the relative viability (NCI-H647; first compound 0.03162 µM) of the same compound?
Answer: Its relative viability is 0.405.

Question: What about the relative viability (NCI-H647; first compound 0.3162 µM) of the same compound?
Answer: The relative viability was 0.466.

Question: And the relative viability (LCLC-97TM1; first compound 0.01 µM)?
Answer: Its relative viability is 0.261.

Question: What about the relative viability (LCLC-97TM1; first compound 0.03162 µM) of the same compound?
Answer: The relative viability was 0.248.

Question: What about the relative viability (LCLC-97TM1; first compound 0.3162 µM) of the same compound?
Answer: The relative viability was 0.203.
